Broadly, the DC50 is the concentration at which degradation of the target reaches its halfway point.

Bounds are passed on as bounds.

This passage reports DC50 results from patent US20260053932A1, “COMPOUNDS AND METHODS FOR THE TARGETED DEGRADATION OF ANDROGEN RECEPTOR AND ASSOCIATED METHODS OF USE” (Arvinas Operations, Inc., priority 2020, published 2026).

The subject of one assay is androgen receptor (AR) in LNCaP and/or VCaP cells. The experiment in a line: Androgen Receptor ELISA assay (AR degradation). To be noted: LNCaP and/or VCaP cells; 5 hours incubation; media with R1881; read-out: DC50 Code* (degradation of AR ELISA). It counts as cell-based. An outline of the steps:
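VCaP cells grown ≥3 days, then treated 5 h with compound in media containing 1 nM R1881 (10× stock). Cells lysed and AR quantified by sandwich ELISA (mouse AR detection Ab, HRP anti-mouse, TMB). DC50 and Dmax derived from AR degradation.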
(An ELISA detects its analyte on a solid surface through an enzyme-linked reagent.)
Turning to `COc1cc(O[C@H]2CC[C@H](NC(=O)c3cnc(N4CCC(CN(C(C)C)[C@H]5C[C@H](Oc6ccc7c(c6)C(=O)N(C6CCC(=O)NC6=O)C7)C5)CC4)nc3)CC2)ccc1C#N` (stereo partly drawn) [Compound 63, N-((1r,4r)-4-(4-cyano-3-methoxyphenoxy)cyclohexyl)-2-(4-((((1r,3r)-3-((2-(2,6-dioxopiperidin-3-yl)-3-oxoisoindolin-5-yl)oxy)cyclobutyl) (isopropyl)amino)methyl)piperidin-1-yl)pyrimidine-5-carboxamide], the DC50 was under 1 nM.
Same read-out and setting: for `N#Cc1ccc(O[C@H]2CC[C@H](NC(=O)c3cnc(N4CCC(CN(C5COC5)[C@H]5C[C@H](Oc6ccc7c(c6)C(=O)N(C6CCC(=O)NC6=O)C7)C5)CC4)cn3)CC2)cc1Cl` (stereo partly drawn) [Compound 15, N-((1r,4r)-4-(3-chloro-4-cyanophenoxy)cyclohexyl)-5-(4-((((1r,3r)-3-((2-(2,6-dioxopiperidin-3-yl)-3-oxoisoindolin-5-yl)oxy)cyclobutyl) (oxetan-3-yl)amino)methyl)piperidin-1-yl)pyrazine-2-carboxamide] the value was under 1 nM; for `CC(C)Oc1cc(N2CCN(CC3CCN(c4ccc(C(=O)N[C@H]5CC[C@H](Oc6ccc(C#N)c(Cl)c6)CC5)nn4)CC3)CC2)cc2c1C(=O)N(C1CCC(=O)NC1=O)C2=O` (stereo partly drawn) [Compound 40, N-((1r,4r)-4-(3-chloro-4-cyanophenoxy)cyclohexyl)-6-(4-((4-(2-(2,6-dioxopiperidin-3-yl)-7-isopropoxy-1,3-dioxoisoindolin-5-yl)piperazin-1-yl)methyl)piperidin-1-yl)pyridazine-3-carboxamide], under 1 nM.

The assay is the same for the next values; noted with them: degradation of AR ELISA in LNCaP and/or VCaP cells; Table 2C; read-out: DC50 Code*.
For `COc1cc(O[C@H]2C(C)(C)[C@H](NC(=O)c3cnc(N4CCC(CN(C(C)C)[C@H]5C[C@H](Oc6cc(OC)c7c(c6)C(=O)N(C6CCC(=O)NC6=O)C7=O)C5)CC4)cn3)C2(C)C)ccc1C#N` (stereo partly drawn) [compound 98, N-((1r,3r)-3-(4-cyano-3-methoxyphenoxy)-2,2,4,4-tetramethylcyclobutyl)-5-(4-((((1r,3r)-3-((2-(2,6-dioxopiperidin-3-yl)-7-methoxy-1,3-dioxoisoindolin-5-yl)oxy)cyclobutyl) (isopropyl)amino)methyl)piperidin-1-yl)pyrazine-2-carboxamide], the DC50 was under 1 nM.
On the same count and under the same terms, the value for `COc1cc(O[C@H]2C[C@H](N(CC3CC4(C3)CN(c3cnc(C(=O)N[C@H]5C(C)(C)[C@H](Oc6cc(C)c(C#N)c(C)c6)C5(C)C)cn3)C4)C(C)C)C2)cc2c1C(=O)N(C1CCC(=O)NC1=O)C2=O` (stereo partly drawn) [compound 158, N-((1r,3r)-3-(4-cyano-3,5-dimethylphenoxy)-2,2,4,4-tetramethylcyclobutyl)-5-(6-((((1r,3r)-3-((2-(2,6-dioxopiperidin-3-yl)-7-methoxy-1,3-dioxoisoindolin-5-yl)oxy)cyclobutyl) (isopropyl)amino)methyl)-2-azaspiro[3.3]heptan-2-yl)pyrazine-2-carboxamide] was under 1 nM.
Consider `Cc1cc(O[C@H]2C(C)(C)[C@H](NC(=O)c3cnc(N4CCC(CN(C)[C@H]5C[C@H](Oc6ccc7c(c6)C(=O)N(C6CCC(=O)NC6=O)C7=O)C5)CC4)cn3)C2(C)C)cc(C)c1C#N` (mixture of isomers) [compound 224, rac-N-((1r,3r)-3-(4-cyano-3,5-dimethylphenoxy)-2,2,4,4-tetramethylcyclobutyl)-5-(4-((((1r,3r)-3-((2-(2,6-dioxopiperidin-3-yl)-1,3-dioxoisoindolin-5-yl)oxy)cyclobutyl) (methyl)amino)methyl)piperidin-1-yl)pyrazine-2-carboxamide], for which the DC50 is under 1 nM.
On the same count and under the same terms, for `COc1cc(O[C@H]2C[C@H](N(CC3CCN(c4cnc(C(=O)N[C@H]5C(C)(C)[C@H](Oc6ccc(C#N)c(Cl)c6)C5(C)C)cn4)CC3)C(C)C)C2)cc2c1CN(C1CCC(=O)NC1=O)C2=O` (mixture of isomers) [compound 226, rac-N-((1r,3r)-3-(3-chloro-4-cyanophenoxy)-2,2,4,4-tetramethylcyclobutyl)-5-(4-((((1r,3r)-3-((2-(2,6-dioxopiperidin-3-yl)-7-methoxy-3-oxoisoindolin-5-yl)oxy)cyclobutyl) (isopropyl)amino)methyl)piperidin-1-yl)pyrazine-2-carboxamide] the value was under 1 nM; for `CCN(CC1CCN(c2ccc(C(=O)N[C@H]3C(C)(C)[C@H](Oc4ccc(C#N)c(OC)c4)C3(C)C)cc2)CC1)[C@H]1C[C@H](Oc2ccc3c(c2)C(=O)N(C2CCC(=O)NC2=O)C3=O)C1` (stereo partly drawn) [compound 147, N-((1r,3r)-3-(4-cyano-3-methoxyphenoxy)-2,2,4,4-tetramethylcyclobutyl)-4-(4-((((1r,3r)-3-((2-(2,6-dioxopiperidin-3-yl)-1,3-dioxoisoindolin-5-yl)oxy)cyclobutyl)(ethyl)amino)methyl)piperidin-1-yl)benzamide], under 1 nM.
Take `Cc1cc(O[C@H]2C(C)(C)[C@H](NC(=O)c3cnc(N4CC(CN[C@H]5C[C@H](Oc6ccc7c(c6)C(=O)N(C6CCC(=O)NC6=O)C7=O)C5)C4)cn3)C2(C)C)cc(C)c1C#N` (stereo partly drawn) [compound 118, N-((1r,3r)-3-(4-cyano-3,5-dimethylphenoxy)-2,2,4,4-tetramethylcyclobutyl)-5-(3-((((1r,3r)-3-((2-(2,6-dioxopiperidin-3-yl)-1,3-dioxoisoindolin-5-yl)oxy)cyclobutyl)amino)methyl)azetidin-1-yl)pyrazine-2-carboxamide]: the DC50 is under 1 nM.
On the same count and under the same terms, the value for `CC1(C)[C@H](NC(=O)c2ccc(N3CCC(CN4CCN(c5ccc6c(c5)C(=O)N([C@]5(C#N)CCC(=O)NC5=O)C6)CC4)CC3)cc2)C(C)(C)[C@H]1Oc1ccc(C#N)c(Cl)c1` [compound 156, N-((1r,3r)-3-(3-chloro-4-cyanophenoxy)-2,2,4,4-tetramethylcyclobutyl)-4-(4-((4-(2-((S)-3-cyano-2,6-dioxopiperidin-3-yl)-3-oxoisoindolin-5-yl)piperazin-1-yl)methyl)piperidin-1-yl)benzamide] was over 100 nM; that for `Cc1cc(O[C@H]2C(C)(C)[C@H](NC(=O)c3ccc(N4CCC(N(C)[C@H]5C[C@H](Oc6ccc7c(c6)C(=O)N(C6CCC(=O)NC6=O)C7=O)C5)CC4)cc3)C2(C)C)cc(C)c1C#N` (mixture of isomers) [compound 157, rac-N-((1r,3r)-3-(4-cyano-3,5-dimethylphenoxy)-2,2,4,4-tetramethylcyclobutyl)-4-(4-(((1r,3r)-3-((2-(2,6-dioxopiperidin-3-yl)-1,3-dioxoisoindolin-5-yl)oxy)cyclobutyl) (methyl)amino)piperidin-1-yl)benzamide] was under 1 nM.

Staying with this assay, now noted: degradation of AR ELISA in LNCaP and/or VCaP cells; read-out: DC50 Code*.
Consider `COCCN(CC1CCN(c2cnc(C(=O)N[C@H]3C(C)(C)[C@H](Oc4ccc(C#N)c(Cl)c4)C3(C)C)cn2)CC1)[C@H]1C[C@H](Oc2ccc3c(c2)C(=O)N(C2CCC(=O)NC2=O)C3=O)C1` (stereo partly drawn) [compound 239, N-((1r,3r)-3-(3-chloro-4-cyanophenoxy)-2,2,4,4-tetramethylcyclobutyl)-5-(4-((((1r,3r)-3-((2-(2,6-dioxopiperidin-3-yl)-1,3-dioxoisoindolin-5-yl)oxy)cyclobutyl)(2-methoxyethyl)amino)methyl)piperidin-1-yl)pyrazine-2-carboxamide], for which the DC50 was 1 to 10 nM.
